The record followed here is patent US5840684A, “Glycopeptide antibiotic derivatives” (Eli Lilly and Company, priority 1995, dated 1998).

Structures are written as SMILES. Values after ≈ are worked out from the molar mass of the structure shown. Bounds are passed on as bounds.

Assay [1] has as its system Staphylococcus aureus S13E. The assay is classed as cell-based. On the procedure: (§1) The MIC's were determined using a standard broth micro-dilution assay.
Assay [2] deals with Staphylococcus aureus SA1199B. The format is cell-based. On the procedure:
as §1

Assay [3] concerns Entercoccus faecium 180-1. The experiment in a line: broth micro-dilution MIC. The format is cell-based. As for the experimental part:
as §1
For orientation: Broth dilution looks for growth in wells or tubes with falling amounts of substance.

The subject of the next assay is Entercoccus faecium 276. Nature of the assay: broth micro-dilution MIC. The format is cell-based. On the procedure:
as §1

For assay [4], the system named is Staphylococcus aureus 446. The experiment in a line: broth micro-dilution MIC. The assay is classed as cell-based. As for the experimental part:
as §1

Assay [5] deals with Staphylococcus aureus 447. Nature of the assay: broth micro-dilution MIC. The assay is classed as cell-based. On the procedure: as §1
In assay [6] the test system is Staphylococcus aureus 489. The experiment in a line: broth micro-dilution MIC. The assay is classed as cell-based. On the procedure: as §1
The test system of assay [7] is Staphylococcus aureus 491. The experiment in a line: broth micro-dilution MIC. The format is cell-based. As for the experimental part:
as §1

Assay [8] concerns Staphylococcus aureus SA1199A. Nature of the assay: broth micro-dilution MIC. The assay is classed as cell-based. As for the experimental part: as §1
For assay [9], the system named is Staphylococcus aureus SA1199. Nature of the assay: broth micro-dilution MIC. The assay is classed as cell-based. As for the experimental part: as §1
For assay [10], the system named is Staphylococcus aureus X400. The experiment in a line: broth micro-dilution MIC. The format is cell-based. On the procedure: as §1
The subject of assay [11] is Staphylococcus aureus X778. Nature of the assay: broth micro-dilution MIC. The format is cell-based. As for the experimental part:
as §1

Assay [12] has as its system Streptococcus pyogenes C203. Nature of the assay: broth micro-dilution MIC. The format is cell-based. As for the experimental part: as §1
The test system of another assay is Entercoccus faecium 180. The experiment in a line: broth micro-dilution MIC. The format is cell-based. The conditions noted are these: Entercoccus faecium 180. As for the experimental part:
(§2) The formula I compounds have in vitro and in vivo activity against Gram-positive pathogenic bacteria. The MIC's were determined using a standard broth micro-dilution assay.

The subject of another assay is Entercoccus faecium 2041. The experiment in a line: broth micro-dilution MIC. The format is cell-based. The conditions noted are these: Entercoccus faecium 2041. On the procedure:
as §2

Assay [13] concerns Enterococcus gallinarum 245. The experiment in a line: broth micro-dilution MIC. The format is cell-based. The conditions noted are these: Enterococcus gallinarum 245. On the procedure: as §2
In a further assay the test system is Escherichia coli EC14. The experiment in a line: broth micro-dilution MIC. The assay is classed as cell-based. On the procedure: as §2
Assay [14] has as its system Haemophilus influenzae RD. Nature of the assay: broth micro-dilution MIC. The format is cell-based. The note with it: Haemophilus influenzae RD. As for the experimental part: as §2
The test system of assay [15] is Staphylococcus epidermidis 270. The experiment in a line: broth micro-dilution MIC. The assay is classed as cell-based. On the procedure:
as §2

Assay [16] has as its system Staphylococcus haemolyticus 105. The experiment in a line: broth micro-dilution MIC. The assay is classed as cell-based. On the procedure:
as §2

The test system of assay [17] is Staphylococcus haemolyticus 415. The experiment in a line: broth micro-dilution MIC. The format is cell-based. On the procedure:
as §2

Assay [18] has as its system Streptococcus pneumoniae P1. The experiment in a line: broth micro-dilution MIC. The assay is classed as cell-based. On the procedure:
as §2

Assay [19] deals with vancomycin-resistant enterococci. Nature of the assay: broth micro-dilution, mean geometric MIC. The format is cell-based, Enterococcus faecium and Enterococcus faecalis. The note with it: enterococci, 24-hour incubation.
In assay [20] the test system is vancomycin-susceptible enterococci. Nature of the assay: broth micro-dilution, mean geometric MIC. The format is cell-based, Enterococcus faecium and Enterococcus faecalis. The note with it: enterococci, 24-hour incubation.

For the compound `CC(C)CC(C(=O)NC1C(=O)NC(CC(N)=O)C(=O)NC2C(=O)NC3C(=O)NC(C(=O)NC(C(=O)O)c4cc(O)cc(O)c4-c4cc3ccc4O)C(OC3CC(C)(N)C(O)C(C)O3)c3ccc(c(Cl)c3)Oc3cc2cc(c3OC2OC(CO)C(O)C(O)C2OC2CC(C)(NCc3ccccn3)C(O)C(C)O2)Oc2ccc(cc2Cl)C1O)N(C)Cc1ccccn1` (stereo not drawn) [Compound 281], the MIC in [1] was 32 µg/mL (≈ 18 µM); in assay [2], 32 µg/mL (≈ 18 µM); in assay [3] it was 4 µg/mL (≈ 2.25 µM); against Entercoccus faecium 276, 8 µg/mL (≈ 4.51 µM); in assay [4], 64 µg/mL (≈ 36.1 µM); in assay [5], above 64 µg/mL. The MIC was 32 µg/mL (≈ 18 µM) in assay [6]; above 64 µg/mL in assay [7]; 4 µg/mL (≈ 2.25 µM) in assay [8]; above 64 µg/mL in assay [9]; above 64 µg/mL in assay [10]; 16 µg/mL (≈ 9.02 µM) in assay [11]. The MIC in [12] was 0.5 µg/mL (≈ 0.282 µM); in the assay on Entercoccus faecium 180, above 64 µg/mL; against Entercoccus faecium 2041 it was 8 µg/mL (≈ 4.51 µM); in assay [13], above 64 µg/mL; against Escherichia coli EC14 it was above 64 µg/mL; in [14], above 64 µg/mL. Also, the MIC is above 64 µg/mL in assay [15], above 64 µg/mL in [16], above 64 µg/mL in [17] and at most 0.06 µg/mL in assay [18]. In addition, the “mean geometric MIC, Vancomycin Resistant Strains” value in [19] is above 128 µg/mL. The “mean geometric MIC, Vancomycin Sensitive Strains” value in assay [20] turned out to be 37 µg/mL.
Regarding `COc1ccc2ccccc2c1CNC1(C)CC(OC2C(Oc3c4cc5cc3Oc3ccc(cc3Cl)C(OC3CC(C)(N)C(O)C(C)O3)C3NC(=O)C(NC(=O)C5NC(=O)C(CC(N)=O)NC(=O)C(NC(=O)C(CC(C)C)N(C)Cc5c(OC)ccc6ccccc56)C(O)c5ccc(c(Cl)c5)O4)c4ccc(O)c(c4)-c4c(O)cc(O)cc4C(C(=O)O)NC3=O)OC(CO)C(O)C2O)OC(C)C1O` (stereo not drawn) [Compound 282], the MIC in assay [1] was 16 µg/mL (≈ 8.28 µM); in assay [2], 16 µg/mL (≈ 8.28 µM); in assay [3] it was 1 µg/mL (≈ 0.517 µM); in the assay on Entercoccus faecium 276, 4 µg/mL (≈ 2.07 µM); in assay [4], 32 µg/mL (≈ 16.6 µM); in assay [5], above 64 µg/mL. Moreover, the MIC in assay [6] turned out to be 8 µg/mL (≈ 4.14 µM); in [7] it was 16 µg/mL (≈ 8.28 µM); in assay [8], 1 µg/mL (≈ 0.517 µM); in assay [9], 16 µg/mL (≈ 8.28 µM); in [10], 16 µg/mL (≈ 8.28 µM); in assay [11] it was 16 µg/mL (≈ 8.28 µM). Further, the MIC in [12] is at most 0.06 µg/mL; in the assay on Entercoccus faecium 180, 32 µg/mL (≈ 16.6 µM); with Entercoccus faecium 2041 it was 4 µg/mL (≈ 2.07 µM); in assay [13], above 64 µg/mL; against Escherichia coli EC14 it was above 64 µg/mL; in assay [14] it was above 64 µg/mL. Further, the MIC in [15] is above 64 µg/mL; in [16], above 64 µg/mL; in assay [17], above 64 µg/mL; in assay [18], at most 0.06 µg/mL. Further, the “mean geometric MIC, Vancomycin Resistant Strains” value in assay [19] worked out at 45 µg/mL. The “mean geometric MIC, Vancomycin Sensitive Strains” value in [20] is 2.6 µg/mL.
For the compound `CNC(CC(C)C)C(=O)NC1C(=O)NC(CC(N)=O)C(=O)NC2C(=O)NC3C(=O)NC(C(=O)NC(C(=O)O)c4cc(O)cc(O)c4-c4cc3ccc4O)C(OC3CC(C)(NCc4c5ccccc5c(C)c5ccccc45)C(O)C(C)O3)c3ccc(c(Cl)c3)Oc3cc2cc(c3OC2OC(CO)C(O)C(O)C2OC2CC(C)(NCc3c4ccccc4c(C)c4ccccc34)C(O)C(C)O2)Oc2ccc(cc2Cl)C1O` (stereo not drawn) [Compound 283], the MIC in assay [1] was 4 µg/mL (≈ 2 µM); in assay [2] it was 32 µg/mL (≈ 16 µM); in [3], 0.125 µg/mL (≈ 0.0625 µM); against Entercoccus faecium 276, 16 µg/mL (≈ 8 µM); in assay [4], 16 µg/mL (≈ 8 µM); in [5], 32 µg/mL (≈ 16 µM). The MIC was found to be 8 µg/mL (≈ 4 µM) in assay [6]; 4 µg/mL (≈ 2 µM) in assay [7]; 4 µg/mL (≈ 2 µM) in assay [8]; 32 µg/mL (≈ 16 µM) in [9]; 16 µg/mL (≈ 8 µM) in [10]; 8 µg/mL (≈ 4 µM) in [11]. Further, the MIC in assay [12] is at most 0.06 µg/mL; in the assay on Entercoccus faecium 180, 4 µg/mL (≈ 2 µM); in the assay on Entercoccus faecium 2041 it was 2 µg/mL (≈ 0.999 µM); in [13] it was 32 µg/mL (≈ 16 µM); against Escherichia coli EC14, above 64 µg/mL; in assay [14], above 64 µg/mL. For the same compound, the MIC in [15] is 16 µg/mL (≈ 8 µM); in assay [16], above 64 µg/mL; in [17], 32 µg/mL (≈ 16 µM); in assay [18] it was at most 0.06 µg/mL. Moreover, in assay [19], the “mean geometric MIC, Vancomycin Resistant Strains” value was found to be 32 µg/mL. Further, the “mean geometric MIC, Vancomycin Sensitive Strains” value in assay [20] was determined as 1.7 µg/mL.
Regarding `CC(C)CC(C(=O)NC1C(=O)NC(CC(N)=O)C(=O)NC2C(=O)NC3C(=O)NC(C(=O)NC(C(=O)O)c4cc(O)cc(O)c4-c4cc3ccc4O)C(OC3CC(C)(N)C(O)C(C)O3)c3ccc(c(Cl)c3)Oc3cc2cc(c3OC2OC(CO)C(O)C(O)C2OC2CC(C)(NCc3c4ccccc4cc4ccccc34)C(O)C(C)O2)Oc2ccc(cc2Cl)C1O)N(C)Cc1c2ccccc2cc2ccccc12` (stereo not drawn) [Compound 284], the MIC in assay [1] was determined as 4 µg/mL (≈ 2.03 µM); in assay [2] it was 4 µg/mL (≈ 2.03 µM); in [3] it was 0.5 µg/mL (≈ 0.253 µM); with Entercoccus faecium 276, 8 µg/mL (≈ 4.05 µM); in [4] it was 8 µg/mL (≈ 4.05 µM); in assay [5], 8 µg/mL (≈ 4.05 µM). The MIC was 2 µg/mL (≈ 1.01 µM) in assay [6]; 2 µg/mL (≈ 1.01 µM) in assay [7]; 0.25 µg/mL (≈ 0.127 µM) in [8]; 8 µg/mL (≈ 4.05 µM) in assay [9]; 4 µg/mL (≈ 2.03 µM) in assay [10]; 1 µg/mL (≈ 0.507 µM) in assay [11]. In addition, the MIC in [12] is at most 0.06 µg/mL; against Entercoccus faecium 180, 8 µg/mL (≈ 4.05 µM); against Entercoccus faecium 2041, 1 µg/mL (≈ 0.507 µM); in [13], 32 µg/mL (≈ 16.2 µM); against Escherichia coli EC14 it was above 64 µg/mL; in [14] it was above 64 µg/mL. Moreover, the MIC in assay [15] is 16 µg/mL (≈ 8.11 µM); in [16] it was 32 µg/mL (≈ 16.2 µM); in [17], 32 µg/mL (≈ 16.2 µM); in assay [18] it was at most 0.06 µg/mL. Also, the “mean geometric MIC, Vancomycin Resistant Strains” value in [19] stood at 38 µg/mL. Moreover, in assay [20], the “mean geometric MIC, Vancomycin Sensitive Strains” value was 2.3 µg/mL.
